Viability data for 23 compounds are collected here from ChEMBL document CHEMBL5608113, “Targeting of CAF-induced therapy resistance in CRC organoid-stroma co-cultures” (2024).

What all share (assay type): functional, Homo sapiens
Conditions in all cases: Homo sapiens, read-out: Cell Viability; for viability at 1 µM: Concentration 1 uM; for viability at 10 µM: Concentration 10 uM

The subject of assay [1] is Colon cancer organoid. Put plainly: Targeting of F14 CAF-induced therapy resistance in O23 CRC organoid-stroma co-culture. Cell viability is reported with SN-38.
Assay [2] concerns Colon cancer organoid. Put plainly: Targeting of F14 CAF-induced therapy resistance in O14 CRC organoid-stroma co-culture. Cell viability is reported with Gefitinib.
Assay [3] relates to Colon cancer organoid. Nature of the assay: Targeting of F14 CAF-induced therapy resistance in O23 CRC organoid-stroma co-culture. Cell viability is reported without Gefitinib.
Assay [4] concerns Colon cancer organoid. Nature of the assay: Targeting of F14 CAF-induced therapy resistance in O23 CRC organoid-stroma co-culture. Cell viability is reported with Gefitinib.
Assay [5] deals with Colon cancer organoid. Nature of the assay: Targeting of F14 CAF-induced therapy resistance in O14 CRC organoid-stroma co-culture. Cell viability is reported without Gefitinib.

As for `NC1(c2ccc(-c3nc4c(O)ccnn4c3-c3ccccc3)cc2)CCC1`, the viability (as a rule, a read-out of living cells in per cent, often relative to untreated cells) at 1 µM in the assay with Colon cancer organoid [1] is 65%; with Colon cancer organoid [2], 49.5%; in the assay on Colon cancer organoid [3], 122%; with Colon cancer organoid [4], 69.1%; with Colon cancer organoid [5], 98.8%.

For the compound `CCS(=O)(=O)c1cc2cc(C[C@@](O)(CC(C)(C)c3ccc(F)cc3C(N)=O)C(F)(F)F)[nH]c2cn1` [BI 3047], the viability at 1 µM was determined as 71% in the assay with Colon cancer organoid [1]; 44.9% with Colon cancer organoid [2]; 139% in the assay with Colon cancer organoid [3]; 46.6% with Colon cancer organoid [4]; 137% in the assay with Colon cancer organoid [5].

For the compound `COc1cc2c(cc1NS(=O)(=O)c1ccc(Br)cc1C)n(C)c(=O)n2C`, the viability at 10 µM with Colon cancer organoid [1] was determined as 117%; with Colon cancer organoid [2], 57.4%; in the assay with Colon cancer organoid [3], 169%; with Colon cancer organoid [4], 69.8%; with Colon cancer organoid [5], 86.7%.

`CC1=C(C)C(=O)C(C(C)(C)CC(=O)N(CCCCSC[C@H]2O[C@@H](n3cnc4c(N)ncnc43)[C@@H]3OC(C)(C)O[C@@H]32)Cc2cccc(-c3ccc(Cl)cc3)c2)=C(C)C1=O`: the viability at 10 µM in the assay on Colon cancer organoid [1] was 9.16%; with Colon cancer organoid [2] it was 66.1%; with Colon cancer organoid [3], 8.34%; with Colon cancer organoid [4], 7.29%; in the assay with Colon cancer organoid [5], 121%.

With `O=C(NCC(=O)N1CCCC1)Nc1ccc2cnccc2c1`, the viability at 10 µM with Colon cancer organoid [1] was 39%; with Colon cancer organoid [2], 76.1%; with Colon cancer organoid [3], 179%; in the assay with Colon cancer organoid [4], 68.5%; in the assay on Colon cancer organoid [5] it was 83.8%.

On to `CN(C)C(=O)/C(C#N)=C/c1ccc(-c2nc3cnc4[nH]ccc4c3n2C2CCCCC2)o1`, for which the viability at 10 µM in the assay on Colon cancer organoid [1] stood at 65.2%; with Colon cancer organoid [2] it was 47.2%; in the assay with Colon cancer organoid [3], 96.1%; in the assay with Colon cancer organoid [4], 56.7%; with Colon cancer organoid [5], 117%.

As to `O=C(O)[C@@H]1[C@@H](Cn2nnc3ccccc3c2=O)CC[C@H]1C(=O)c1ccc(OCCC2CCOCC2)cc1` [BAY-694], the viability at 10 µM in the assay on Colon cancer organoid [1] came out at 78.7%; in the assay with Colon cancer organoid [2], 56%; in the assay on Colon cancer organoid [3], 146%; with Colon cancer organoid [4], 53%; in the assay with Colon cancer organoid [5] it was 102%.

Take `COc1ccc2c(c1)O[C@H](c1ccc(OC)c(OC)c1)C[C@@H]2NC(=O)C1(c2ccc3c(c2)OC(F)(F)O3)CC1` [A-1596584]: the viability at 10 µM came out at 59.1% in the assay with Colon cancer organoid [1]; 48.4% with Colon cancer organoid [2]; 111% with Colon cancer organoid [3]; 48.5% with Colon cancer organoid [4]; 74.5% with Colon cancer organoid [5].

In the case of `c1ccc(C2CCN(c3cnc4c(N5CCOCC5)nccn34)CC2)cc1`, the viability at 10 µM in the assay on Colon cancer organoid [1] was determined as 108%; in the assay with Colon cancer organoid [2], 78.2%; in the assay with Colon cancer organoid [3], 207%; in the assay with Colon cancer organoid [4], 136%; with Colon cancer organoid [5], 81.3%.

On to `C[C@H](c1ccnc(Nc2nc3ccc(-c4cc(N(C)C)ncn4)cc3[nH]2)c1)N1CCN(C(=O)CC(F)(F)F)CC1` [BAY-985], for which the viability at 10 µM came to 80.5% with Colon cancer organoid [1]; 77.2% with Colon cancer organoid [2]; 160% in the assay on Colon cancer organoid [3]; 84.3% with Colon cancer organoid [4]; 163% in the assay on Colon cancer organoid [5].

For `Cn1cc(CCn2cnc(-c3cnn(C)c3)c2-c2ccc(C#N)cc2)cn1`, the viability at 10 µM amounted to 92.5% in the assay on Colon cancer organoid [1]; 71.4% with Colon cancer organoid [2]; 141% in the assay on Colon cancer organoid [3]; 63.6% in the assay with Colon cancer organoid [4]; 105% in the assay on Colon cancer organoid [5].

In the case of `CNCc1ccccc1-c1csc([C@H](C)Nc2nc(C)nc3cc(OC)c(OC)cc23)c1` [BAY-294], the viability at 1 µM in the assay with Colon cancer organoid [1] turned out to be 89%; in the assay with Colon cancer organoid [2], 66.5%; with Colon cancer organoid [3], 137%; in the assay on Colon cancer organoid [4], 46.4%; in the assay with Colon cancer organoid [5], 102%.

With `Clc1cc2c(NC3CCCC3)nnc(-c3ccncc3)c2cc1Cl`, the viability at 10 µM came out at 114% with Colon cancer organoid [1]; 65.8% in the assay on Colon cancer organoid [2]; 142% in the assay with Colon cancer organoid [3]; 72.9% in the assay on Colon cancer organoid [4]; 91.2% in the assay on Colon cancer organoid [5].

`Cn1nc(C(=O)NCc2ccc(C(=O)O)cc2)cc1-c1ccc2[nH]ccc2c1` [BI 4395]: the viability at 10 µM with Colon cancer organoid [1] was determined as 77.4%; in the assay with Colon cancer organoid [2] it was 62.1%; with Colon cancer organoid [3], 124%; in the assay on Colon cancer organoid [4] it was 52.8%; with Colon cancer organoid [5], 95.3%.

In the case of `Cc1c(NC(=O)COc2ccc(Cl)cc2C(=O)c2cc(F)cc(C(F)(F)F)c2)ccc(C(=O)O)c1F` [BI 2540], the viability at 10 µM was 67.8% with Colon cancer organoid [1]; 64.5% with Colon cancer organoid [2]; 132% in the assay with Colon cancer organoid [3]; 79.4% in the assay with Colon cancer organoid [4]; 124% in the assay on Colon cancer organoid [5].

Take `Cc1c(Nc2ccc(S(=O)(=O)N3CCN(C)CC3)cc2F)nc2ccc(Nc3cnn(C4CC4)c3)cn2c1=O`: the viability at 10 µM in the assay on Colon cancer organoid [1] turned out to be 71.2%; in the assay on Colon cancer organoid [2], 53%; with Colon cancer organoid [3] it was 118%; with Colon cancer organoid [4], 115%; with Colon cancer organoid [5] it was 68.6%.

Take `Nc1nc(NCc2ccccc2)nc(-c2cccc(CO)c2)n1` [ZINC32547799]: the viability at 10 µM in the assay on Colon cancer organoid [1] stood at 119%; in the assay on Colon cancer organoid [2], 31.3%; in the assay on Colon cancer organoid [3], 139%; with Colon cancer organoid [4] it was 75.9%; in the assay on Colon cancer organoid [5], 76%.

With `O=C(O)CNC(=O)c1c(O)c2ccccc2n(Cc2ccccc2)c1=O`, the viability at 10 µM with Colon cancer organoid [1] amounted to 95.1%; in the assay on Colon cancer organoid [2], 80.4%; in the assay with Colon cancer organoid [3], 167%; in the assay with Colon cancer organoid [4] it was 67.5%; in the assay with Colon cancer organoid [5] it was 103%.

In the case of `CN1C[C@H](Nc2cnn(C)c(=O)c2Br)C[C@H](c2ccccc2)C1`, the viability at 10 µM in the assay with Colon cancer organoid [1] came out at 66.4%; in the assay with Colon cancer organoid [2], 64.7%; with Colon cancer organoid [3], 143%; in the assay on Colon cancer organoid [4] it was 68.1%; in the assay with Colon cancer organoid [5], 84.6%.

For `CCS(=O)(=O)Nc1ccc(Oc2ccc(F)cc2F)c(-c2cn(C)c(=O)c3[nH]ccc23)c1` [MIVEBRESIB], the viability at 10 µM was 25.4% with Colon cancer organoid [1]; 1.95% with Colon cancer organoid [2]; 37.5% with Colon cancer organoid [3]; 29.2% in the assay on Colon cancer organoid [4]; 5.68% in the assay on Colon cancer organoid [5].

Turning to `CS(=O)(=O)N1CCCC(NC(=O)[C@H](CCC2CCCCC2)NC(=O)c2ccc(CNC(=O)c3cnc4ccccn34)cc2)C1` (stereo not given in full) [SR-302], the viability at 1 µM with Colon cancer organoid [1] was determined as 54.1%; with Colon cancer organoid [2], 37.1%; in the assay on Colon cancer organoid [3], 126%; with Colon cancer organoid [4], 69.8%; in the assay on Colon cancer organoid [5], 101%.

As for `CC(=O)C1=C(C)N(c2cccc(C(F)(F)F)c2)C(=O)N[C@H]1c1ccc(C#N)nc1` [BAY-677], the viability at 10 µM in the assay on Colon cancer organoid [1] worked out at 75%; in the assay on Colon cancer organoid [2] it was 57.5%; with Colon cancer organoid [3], 93.5%; in the assay with Colon cancer organoid [4], 51.7%; with Colon cancer organoid [5], 107%.

For the compound `O=C(Nc1cccnn1)N1CCC(=Cc2cccc(Oc3ccc(C(F)(F)F)cn3)c2)CC1`, the viability at 10 µM amounted to 105% in the assay with Colon cancer organoid [1]; 37.7% in the assay with Colon cancer organoid [2]; 114% in the assay with Colon cancer organoid [3]; 54.6% in the assay on Colon cancer organoid [4]; 94% with Colon cancer organoid [5].
